Format in all cases: biochemical, bovine
Assay [1] concerns the target T1, Gal-T1(Y289G) (Bos taurus, UniProt P08037, I205M/L206V/P187L/V158I/Y289G).
T1 construct: host or cells: CHO K1
T1 sequence (P08037 74-402 V158I/P187L/I205M/L206V/Y289G): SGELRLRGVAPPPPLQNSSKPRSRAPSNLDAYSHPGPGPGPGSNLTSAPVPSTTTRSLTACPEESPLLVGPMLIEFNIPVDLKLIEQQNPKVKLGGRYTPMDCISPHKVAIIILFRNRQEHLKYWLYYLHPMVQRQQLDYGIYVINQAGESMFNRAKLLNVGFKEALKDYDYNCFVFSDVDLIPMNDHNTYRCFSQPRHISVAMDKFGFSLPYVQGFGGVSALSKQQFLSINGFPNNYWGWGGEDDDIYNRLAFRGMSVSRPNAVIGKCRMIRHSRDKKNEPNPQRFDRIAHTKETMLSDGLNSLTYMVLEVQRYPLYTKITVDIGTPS
As to the kind of experiment: Glycosyltransfer to trimmed trastuzumab with Gal-T1(Y289G) expressed in CHO. The note with it: trimmed trastuzumab 10 mg/mL; UDP derivative 5 mM; enzyme 0.5 mg/mL; pH 8.0, 30° C. overnight. From the text:
(§1) A set of Gal-T 1 mutants encoding residues 74-402 of bovine Gal-T 1 were transiently expressed in CHO K1 cells by Evitria (Zurich, Switzerland) which include the Gal-T1 single mutants Y289L (represented by SEQ ID NO: 26), Y289F (represented by SEQ ID NO: 27), Y289M (represented by SEQ ID NO: 28), Y289V (represented by SEQ ID NO: 29), Y289A (represented by SEQ ID NO: 30), and Y289G (represented by SEQ ID NO: 31), and the Gal-T1 double mutants Y289L,C342T (represented by SEQ ID NO: 32), and Y289M,C342T (represented by SEQ ID NO: 33). The mutants were purified using a cation exchange column (Source 15S HR16/10 column, GE Healthcare) as described above. Purified proteins were analyzed by SDS-PAGE.
(§2) Trimmed trastuzumab (10 mg/mL, […] obtained by Endo S treatment of trastuzumab, was incubated with the 4-azido-3,5-difluorobenzoyl derivative of UDP-galactosamine (23, 5 mM) and one of the Gal-T1 single mutants Y289L, Y289M, Y289A or Y289G (expressed in CHO as described above) (0.5 mg/mL) in 10 mM MnCl2 and 25 mM Tris-HCl pH 8.0 at 30° C. overnight. Mass spectral analysis of the reduced sample indicated a partial conversion of the core GlcNac(Fuc)-substituted trastuzumab heavy chain (49504 Da) into product 30 (49818 to 49825 Da, 20 to 50% of total heavy chain depending on the Gal-T1 mutant used), resulting from transfer of 23 to core GlcNAc(Fuc)-substituted trastuzumab heavy chain. […]

Assay [2] deals with T2, Gal-T1(Y289L,C342T) (Bos taurus, UniProt P08037, C342T/Y289L).
T2 construct: host or cells: CHO K1
T2 sequence (P08037 74-402 V158I/P187L/I205M/L206V/Y289L/C342T): T1 sequence (P08037 74-402 V158I/P187L/I205M/L206V/Y289G) with G216L, C269T
As to the kind of experiment: Glycosyltransfer to trimmed trastuzumab with Gal-T1(Y289L,C342T) expressed in CHO. The note with it: trimmed trastuzumab 10 mg/mL; UDP derivative 5 mM; enzyme 2.0 mg/mL; pH 8.0, 30° C. overnight. On the procedure:
A solution of 20 μg (modified) IgG was incubated for 1 hour at 37° C. with Fabricator™ (commercially available from Genovis, Lund, Sweden) (1.25 U/μL) in phosphate-buffered saline (PBS) pH 6.6 in a total volume of 10 μL. Fabricator™-digested samples were washed trice with milliQ using an Amicon Ultra-0.5, Ultracel-10 Membrane (Millipore) resulting in a final sample volume of approximately 40 μL. The Fc/2 fragment was analyzed by electrospray ionization time-of-flight (ESI-TOF) on a JEOL AccuTOF. Deconvoluted spectra were obtained using Magtran software.
as §1, with “SDS-PAGE. […]” for “SDS-PAGE.”

Assay [3] has as its target T3, Gal-T1(Y289L) (Bos taurus, UniProt P08037, I205M/L206V/P187L/V158I/Y289L).
T3 construct: host or cells: CHO K1
T3 sequence (P08037 74-402 V158I/P187L/I205M/L206V/Y289L): T1 sequence (P08037 74-402 V158I/P187L/I205M/L206V/Y289G) with G216L
As to the kind of experiment: Glycosyltransfer to trimmed trastuzumab with Gal-T1(Y289L) expressed in CHO. The settings on record: trimmed trastuzumab 10 mg/mL; UDP derivative 5 mM; enzyme 0.5 mg/mL; pH 8.0, 30° C. overnight.
Excerpt: as §1, §2

Positions count from the first letter of the chain named.

For `[N-]=[N+]=Nc1c(F)cc(C(=O)N[C@H]2[C@@H](OP(=O)(O)OP(=O)(O)OC[C@H]3O[C@@H](n4ccc(=O)[nH]c4=O)[C@H](O)[C@@H]3O)O[C@H](CO)[C@H](O)[C@@H]2O)cc1F` [Compound 23, 4-azido-3,5-difluorobenzoyl Derivative of UDP-GalNH2], the observed conversion result in assay [1] was “approximately 20%”; in assay [3], “approximately 30%”. Further, the “conversion of core GlcNAc(Fuc)-substituted trastuzumab into product” value in assay [2] was “complete conversion”.

For the origin of these results see US20170009266A1, “PROCESS FOR THE ATTACHMENT OF A GALNAC MOIETY COMPRISING A (HETERO)ARYL GROUP TO A GLCNAC MOIETY, AND PRODUCT OBTAINED THEREBY” (SYNAFFIX B.V., priority 2014, published 2017).
